Patent US9932331B2, “Phenyl tetrahydroisoquinoline compound substituted with heteroaryl” (TAISHO PHARMACEUTICAL CO., LTD, priority 2014, dated 2018)
Structures can show the parent of a compound that is named as a salt.

Target: T1, human NHE3 (Homo sapiens, UniProt P48764)
T1 sequence (P48764 26-834): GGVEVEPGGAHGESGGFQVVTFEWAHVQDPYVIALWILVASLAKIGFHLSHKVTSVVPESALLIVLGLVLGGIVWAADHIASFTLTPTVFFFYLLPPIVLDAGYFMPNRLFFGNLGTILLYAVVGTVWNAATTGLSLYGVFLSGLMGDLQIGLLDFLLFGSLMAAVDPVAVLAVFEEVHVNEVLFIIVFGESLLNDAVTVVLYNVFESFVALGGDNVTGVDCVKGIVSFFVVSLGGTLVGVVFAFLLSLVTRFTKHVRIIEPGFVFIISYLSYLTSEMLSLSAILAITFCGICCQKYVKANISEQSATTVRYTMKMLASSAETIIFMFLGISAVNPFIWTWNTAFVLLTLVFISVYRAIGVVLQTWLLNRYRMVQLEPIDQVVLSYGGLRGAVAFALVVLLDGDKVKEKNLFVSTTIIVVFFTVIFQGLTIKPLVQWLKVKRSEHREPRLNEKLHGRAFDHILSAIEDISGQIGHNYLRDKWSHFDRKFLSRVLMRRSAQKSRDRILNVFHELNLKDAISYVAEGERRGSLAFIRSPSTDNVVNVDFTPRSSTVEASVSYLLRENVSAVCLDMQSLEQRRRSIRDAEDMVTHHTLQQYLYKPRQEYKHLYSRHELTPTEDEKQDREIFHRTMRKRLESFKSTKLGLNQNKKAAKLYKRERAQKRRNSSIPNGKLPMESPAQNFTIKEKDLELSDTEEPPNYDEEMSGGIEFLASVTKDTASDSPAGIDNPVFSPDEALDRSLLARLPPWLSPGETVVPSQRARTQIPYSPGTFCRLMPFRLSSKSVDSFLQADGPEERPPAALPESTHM
Assay: NHE3 inhibition test (recovery of intracellular pH in cell line stably expressing human NHE3)
Assay type: cell-based
Conditions: OK cells deficient in endogenous NHE stably expressing human NHE3; BCECF fluorescence, initial rate of pH recovery; read-out: human NHE3 inhibitory activity IC50
Protocol: (1) Preparation of Cell Line Deficient in Endogenous NHE
The cell line deficient in endogenous NHE was prepared according to the method of Jacques Pouyssegur et al. (Proc. Natl. Acad. Sci. USA. 1984, Vol. 81, 4833-4837) using opossum kidney (OK) cells (ATCC).
(2) Preparation of Expression Plasmid and Cell Line Stably Expressing Human NHE3
The expression plasmid was constructed by inserting a human NHE3 (SLC9A3, Accession No. NM_004174) cDNA sequence (GeneCopoeia, Inc.) into a pcDNA3.2/V5-DEST vector (Life Technologies Corp.).
The OK cells deficient in endogenous NHE were transfected with the constructed human NHE3 expression plasmid to prepare stably expressing cells. The transfection was carried out by electroporation using a Nucleofector 2b device (Lonza Group Ltd.). A stably expressing cell line was selected in medium supplemented with 500 μg/mL Geneticin (Life Technologies Corp.) and isolated.
NHE3 activity measurement method using cell: The activity was determined by using the NHE3-mediated recovery of intracellular pH occurring after intracellular acidification, as an index. The intracellular pH was measured by a partial modification of the pH-sensitive fluorescent indicator method reported by Tsien et al. (Proc. Natl. Acad. Sci. USA., 1984, 81, 7436-7440).
The cell line stably expressing human NHE3 was inoculated on a poly-D-lysine-coated 96-well plate (Greiner Bio-one) and cultured overnight. […] Then, Hank's balanced salt buffer solution containing 0.25 μM BCECF-AM (Dojindo Laboratories) was added to the cells, which were then incubated at 37° C. for 30 minutes. […] The cells thus incubated in the NH4Cl buffer solution were washed with NH4Cl-free buffer solution (133.8 mM choline chloride, […], 5 mM glucose, 4.7 mM KCl, 1.25 mM CaCl2, 1.25 mM MgCl2, 0.97 mM K2HPO4, 0.23 mM KH2PO4, pH 7.4) to decrease the intracellular pH. After the washing step, 70 μL of a test compound solution prepared with the NH4Cl-free buffer solution was added to the cells, and 70 iμL of sodium ion-containing buffer solution (133.8 mM NaCl, 10 mM HEPES, 5 mM glucose, 4.7 mM KCl, 1.25 mM CaCl2, 1.25 mM MgCl2, 0.97 mM Na2HPO4, 0.23 mM NaH2PO4, pH 7.4) was added thereto in a measurement system FDSS6000 (Hamamatsu Photonics K.K.) to start the recovery of pH. The recovery of intracellular pH was monitored using BCECF fluorescence (excitation wavelength: 480 nm, fluorescence wavelength: 520 to 560 nm), and the initial rate of the pH recovery was plotted. The recovery of pH without test compound was defined as the maximum recovery, and the test compound concentration necessary to inhibit 50% of the maximum recovery was calculated as an IC50 value.

SMILES: CN1Cc2c(Cl)cc(Cl)cc2[C@H](c2cccc(-c3cn(CCOCCOCCOCCNC(=O)NCCOCCOCCOCCn4cc(-c5cccc([C@@H]6CN(C)Cc7c(Cl)cc(Cl)cc76)c5)nn4)nn3)c2)C1 [Example 7-36, 1,3-Bis[2-(2-{2-[2-(4-{3-[(4S)-6,8-dichloro-2-methyl-1,2,3,4-tetrahydroisoquinolin-4-yl]phenyl}-1H-1,2,3-triazol-1-yl)ethoxy]ethoxy}ethoxy)ethyl]urea hydrochloride]
- IC50: 21.4 nM

SMILES: CN1Cc2c(Cl)cc(Cl)cc2[C@H](c2cccc(-c3cn(CCOCCOCCOCCNC(=O)NCCCCCCCCNC(=O)NCCOCCOCCOCCn4cc(-c5cccc([C@@H]6CN(C)Cc7c(Cl)cc(Cl)cc76)c5)nn4)nn3)c2)C1 [Example 7-28, 1,1′-Octane-1,8-diylbis {3-[2-(2-{2-[2-(4-{3-[(4S)-6,8-dichloro-2-methyl-1,2,3,4-tetrahydroisoquinolin-4-yl]phenyl}-1H-1,2,3-triazol-1-yl)ethoxy]ethoxy}ethoxy)ethyl]urea}hydrochloride]
- IC50: 7.3 nM

SMILES: CN1Cc2c(Cl)cc(Cl)cc2[C@H](c2cccc(-c3nnc(CCOCCOCCNC(=O)NCCCCNC(=O)NCCOCCOCCc4nnc(-c5cccc([C@@H]6CN(C)Cc7c(Cl)cc(Cl)cc76)c5)[nH]4)[nH]3)c2)C1 [Example 7-21, 1,1′-Butane-1,4-diylbis[3-(2-{2-[2-(5-{3-[(4S)-6,8-dichloro-2-methyl-1,2,3,4-tetrahydroisoquinolin-4-yl]phenyl}-4H-1,2,4-triazol-3-yl)ethoxy]ethoxy}ethyl)urea]diformate]
- IC50: 3.8 nM

SMILES: CN1Cc2c(Cl)cc(Cl)cc2[C@H](c2cccc(-c3cc(OCCOCCOCCOCCNC(=O)CCCCC(=O)NCCOCCOCCOCCOc4cc(-c5cccc([C@@H]6CN(C)Cc7c(Cl)cc(Cl)cc76)c5)ncn4)ncn3)c2)C1 [Example 8-23, N,N′-Bis{2-[2-(2-{2-[(6-{3-[(4S)-6,8-dichloro-2-methyl-1,2,3,4-tetrahydroisoquinolin-4-yl]phenyl}pyrimidin-4-yl)oxy]ethoxy}ethoxy)ethoxy]ethyl}hexanediamide hydrochloride]
- IC50: 4.7 nM

SMILES: CN1Cc2c(Cl)cc(Cl)cc2[C@H](c2cccc(-c3cc(NCCOCCOCCOCCNC(=O)CCCCC(=O)NCCOCCOCCOCCNc4cc(-c5cccc([C@@H]6CN(C)Cc7c(Cl)cc(Cl)cc76)c5)ncn4)ncn3)c2)C1 [Example 8-13, N,N′-Bis{2-[2-(2-{2-[(6-{3-[(4S)-6,8-dichloro-2-methyl-1,2,3,4-tetrahydroisoquinolin-4-yl]phenyl}pyrimidin-4-yl)amino]ethoxy}ethoxy)ethoxy]ethyl}hexanediamide hydrochloride]
- IC50: 10.6 nM

SMILES: CN1Cc2c(Cl)cc(Cl)cc2[C@H](c2cccc(-c3ccn[nH]3)c2)C1 [Example 1-3, (4S)-6,8-Dichloro-2-methyl-4-[3-(1H-pyrazol-3-yl)phenyl]-1,2,3,4-tetrahydroisoquinoline]
- IC50: 392 nM

SMILES: CN1Cc2c(Cl)cc(Cl)cc2[C@H](c2cccc(-c3cnc(NCCOCCOCCOCCNC(=O)NCCCCNC(=O)NCCOCCOCCOCCNc4ncc(-c5cccc([C@@H]6CN(C)Cc7c(Cl)cc(Cl)cc76)c5)cn4)nc3)c2)C1 [Example 7-38, 1,1′-Butane-1,4-diylbis(3-{2-[2-(2-{2-[(5-{3-[(4S)-6,8-dichloro-2-methyl-1,2,3,4-tetrahydroisoquinolin-4-yl]phenyl}pyrimidin-2-yl)amino]ethoxy}ethoxy)ethoxy]ethyl}urea) hydrochloride]
- IC50: 3.8 nM

SMILES: CN1Cc2c(Cl)cc(Cl)cc2[C@H](c2cccc(-c3cnnc(NCCOCCOCCNC(=O)NCCCCNC(=O)NCCOCCOCCNc4cc(-c5cccc([C@@H]6CN(C)Cc7c(Cl)cc(Cl)cc76)c5)cnn4)c3)c2)C1 [Example 7-13, 1,1′-Butane-1,4-diylbis {3-[2-(2-(2-{2-[(5-{3-[(4S)-6,8-dichloro-2-methyl-1,2,3,4-tetrahydroisoquinolin-4-yl]phenyl}pyridazin-3-yl)amino]ethoxy}ethoxy)ethyl]urea}tetrahydrochloride]
- IC50: 12 nM

SMILES: CCc1cc(-c2cccc([C@@H]3CN(C)Cc4c(Cl)cc(Cl)cc43)c2)ccn1 [Example 1-12, (4S)-6,8-Dichloro-4-[3-(2-ethylpyridin-4-yl)phenyl]-2-methyl-1,2,3,4-tetrahydroisoquinoline trifluoroacetate]
- IC50: 650 nM

SMILES: CN1Cc2c(Cl)cc(Cl)cc2[C@H](c2cccc(-c3cc(NCCOCCOCCNC(=O)Nc4ccc(NC(=O)NCCOCCOCCNc5cc(-c6cccc([C@@H]7CN(C)Cc8c(Cl)cc(Cl)cc87)c6)ncn5)cc4)ncn3)c2)C1 [Example 7-14, 1,1′-Benzene-1,4-diylbis {3-[2-(2-{2-[(6-{3-[(4S)-6,8-dichloro-2-methyl-1,2,3,4-tetrahydroisoquinolin-4-yl]phenyl}pyrimidin-4-yl)amino]ethoxy}ethoxy)ethyl]urea} trifluoroacetate]
- IC50: 13.9 nM

SMILES: CN1Cc2c(Cl)cc(Cl)cc2[C@H](c2cccc(-c3cnc(NCCOCCOCCOCCNC(=O)[C@H](O)[C@@H](O)C(=O)NCCOCCOCCOCCNc4ncc(-c5cccc([C@@H]6CN(C)Cc7c(Cl)cc(Cl)cc76)c5)cn4)nc3)c2)C1 [Example 8-21, (2R,3R)-N,N′-Bis{2-[2-(2-{2-[(5-{3-[(4S)-6,8-dichloro-2-methyl-1,2,3,4-tetrahydroisoquinolin-4-yl]phenyl}pyrimidin-2-yl)amino]ethoxy}ethoxy)ethoxy]ethyl}-2,3-dihydroxybutanediamide formate]
- IC50: 3.2 nM

SMILES: CN1Cc2c(Cl)cc(Cl)cc2[C@H](c2cccc(-c3cnccn3)c2)C1 [Example 1-14, (4S)-6,8-Dichloro-2-methyl-4-[3-(pyrazin-2-yl)phenyl]-1,2,3,4-tetrahydroisoquinoline trifluoroacetate]
- IC50: 173 nM

SMILES: CN1Cc2c(Cl)cc(Cl)cc2[C@H](c2cccc(-c3cn[nH]c3)c2)C1 [Example 1-4, (4S)-6,8-dichloro-2-methyl-4-[3-(1H-pyrazol-4-yl)phenyl]-1,2,3,4-tetrahydroisoquinoline]
- IC50: 257 nM

SMILES: CN1Cc2c(Cl)cc(Cl)cc2[C@H](c2cccc(-c3ccc(NCCOCCOCCNC(=O)NCCCCNC(=O)NCCOCCOCCNc4ccc(-c5cccc([C@@H]6CN(C)Cc7c(Cl)cc(Cl)cc76)c5)cn4)nc3)c2)C1 [Example 7-7, 1,1′-Butane-1,4-diylbis {3-[2-(2-{2-[(5-{3-[(4S)-6,8-dichloro-2-methyl-1,2,3,4-tetrahydroisoquinolin-4-yl]phenyl}pyridin-2-yl)amino]ethoxy}ethoxy)ethyl]urea}]
- IC50: 6.8 nM

SMILES: CN1Cc2c(Cl)cc(Cl)cc2[C@H](c2cccc(-c3ccnnc3)c2)C1 [Example 1-17, (4S)-6,8-Dichloro-2-methyl-4-[3-(pyridazin-4-yl)phenyl]-1,2,3,4-tetrahydroisoquinoline trifluoroacetate]
- IC50: 109 nM
